Here are results for 7 compounds from ChEMBL document CHEMBL3397014, “The short way to chiral compounds with hexahydrofluoreno[9,1-bc]furan framework: synthesis and cytotoxic activity” (2015).

The subject of test [1] is MT4. In words: Induction of apoptosis in human MT4 cells at 0.9 uM after 24 hrs by propidium iodide staining based FACS flow cytometry (reference value: 2.3%). The test is classed as functional.
Test [2] can be described thus: Cytotoxic activity against human CEM13 cells assessed as reduction in cell viability after 72 hrs by MTT assay. The class given is functional. On the technique in general: Tetrazolium assays rely on reduction of a dye to a coloured formazan, in cell work by metabolically active cells.
Test [3] in a line: Cytotoxic activity against human U937 cells assessed as reduction in cell viability after 72 hrs by MTT assay. The test is classed as functional, U-937.
In test [4] the test system is MT4. In words: Cytotoxic activity against human MT4 cells assessed as reduction in cell viability after 72 hrs by MTT assay. The test is classed as functional.
Test [5] has as its system MT4. In words: Induction of apoptosis in human MT4 cells at 0.9 uM after 72 hrs by propidium iodide staining based FACS flow cytometry (reference value: 5.5%). The class given is functional. Background: In flow cytometry, cells or beads pass a laser one at a time.
For test [6], the system named is MT4. The experiment in a line: Induction of apoptosis in human MT4 cells at 0.9 uM after 48 hrs by propidium iodide staining based FACS flow cytometry (reference value: 3.5%). The class given is functional.

On to `COc1cc2c(cc1O)[C@@H]1OC[C@@H]3CC(C(C)C)=CC2[C@@]31C` (some centres undefined), for which the Activity with MT4 [1] is given as 12.8%; in the test with MT4 [5], 27.7%; in the test with MT4 [6], 16.3%. The CTD50 in test [2] amounted to 93.3 µM; in test [3] it was 50 µM; in the test on MT4 [4], 0.93 µM.
Regarding `COc1cc2c(cc1O)C1C=C(C(C)C)C[C@H]3CO[C@@H]2[C@@]13C` (some centres undefined), the CTD50 in test [2] came to 136.7 µM; in test [3], 210 µM; in the test on MT4 [4], 150 µM.
The matching figures for `COc1cc2c(c(OC)c1O)C1C=C(C(C)C)C[C@H]3CO[C@@H]2[C@@]13C` (some centres undefined): 157.6 µM, 136.4 µM and 224.2 µM.
The matching figures for `COc1cc2c(c(OC)c1OC)C1C=C(C(C)C)C[C@H]3CO[C@@H]2[C@@]13C` (some centres undefined): 49.4 µM, 66.9 µM and 200.6 µM.
With `COc1cc(OC)c2c(c1OC)C1C=C(C(C)C)C[C@H]3CO[C@@H]2[C@@]13C` (some centres undefined), the figures for the CTD50 (in test [2]; in test [3]; in the test on MT4 [4]) were 81.4 µM, 116.3 µM and above 250 µM, respectively.
On to `CC(C)C1=CC2Oc3cc(O)ccc3[C@@H]3OC[C@H](C1)[C@]23C` (some centres undefined), for which the CTD50 is 111.9 µM in test [2], 164.3 µM in test [3] and 150.3 µM in the test on MT4 [4].
For the compound `COc1cccc2c1C(=O)c1c(O)c3c(c(O)c1C2=O)C[C@@](O)(C(=O)CO)C[C@@H]3O[C@H]1C[C@H](N)[C@H](O)[C@H](C)O1` [DOXORUBICIN], the CTD50 in test [2] was determined as 3.44 µM; in test [3] it was 0.17 µM; in the test with MT4 [4], 2.76 µM.
